How the values were obtained:
[1] = DLS size of dendrimersomes assembled from glycerol-JDs in water at different concentrations; assay type: physicochemical; conditions: for Dh (nm): size distribution by intensity
Procedure: Assembly of all eight glycerol-JDs was performed by injection of their ethanol solution (50 μL) into 1 mL of Milli-Q water. The size distribution and structure of resulting DSs were analyzed by DLS (FIG. 84) and cryo-TEM. […] In a certain concentration range the size of DSs increased with the concentration of JDs injected in water or buffer. […] The dimensions of the assemblies were identical when the concentrations of the JDs in water were identical. Sizes of assemblies from mixtures of 1R and 1S in different ratios (1:3, 1:1 and 3:1), were also identical (FIG. 84). […] With the exception of the rotation of polarized light, the physical properties of enantiomers and their racemic mixtures must be identical.
Dynamic light scattering (DLS). Hydrodynamic diameters (Dh) of the self-assemblies of dendrimer molecules and their size distributions were measured on a Malvern Instruments particle sizer (Zetasizer® Nano S, Malvern Instruments, UK) equipped with 4 mW He—Ne laser (633 nm) and avalanche photodiode positioned at […] to the beam and temperature controlled cuvette holder. Experiments were performed at 25° C. in triplicate. The distribution of radius was intensity.

[2] = pKa measurements of individual IAJD molecules by titration; assay type: physicochemical; conditions: individual IAJD molecule; for Avg pKa: average of pKa 1-3; for pKa 1: measurement 1; for pKa 2: measurement 2; for pKa: ethanol saturated with NaCl, titrated with 0.1 M aqueous HCl, Table 15
Procedure: pKa measurements of individual IAJD Molecules was performed as follows. IAJD Molecules were first dissolved in ethanol (Sat. with NaCl) at a concentration of 1.5 mg/mL and the solution volume was 3 mL.
Then 0.1 M HCl solution was added to the above ethanol solution with an increment of 7.5 μL. The resulting pH after each addition of HCl solution was measured by an Thermo Scientific Orion Star A121 meter with Thermo Scientific Orion 8220BNWP pH probe. pKa was determined using the half equivalence point titration.

With `CCCCCCCCCCCCOc1cc(OCCCCCCCCCCCC)cc(C(=O)OCC(COC(=O)c2cc(OCCCCCCCCCCCC)cc(OCCCCCCCCCCCC)c2)OC(=O)C(C)(COC(=O)c2cc(OCCOCCOCCOC)c(OCCOCCOCCOC)c(OCCOCCOCCOC)c2)COC(=O)c2cc(OCCOCCOCCOC)c(OCCOCCOCCOC)c(OCCOCCOCCOC)c2)c1` [Compound 3, (3,5)-12G1-GC-(achiral)-BMPA-(3,4,5)-3EO-G2] the PDI ([1]; JD 0.025 mg·mL−1 in water) was 0.272, the “Dh (nm)” value ([1]; JD 0.025 mg·mL−1 in water) was 72 nm and the PDI ([1]; JD 0.05 mg·mL−1 in water) was 0.241. The “Dh (nm)” value ([1]; JD 0.05 mg·mL−1 in water) was 97 nm, the PDI ([1]; JD 0.1 mg·mL−1 in water) was 0.183 and the “Dh (nm)” value ([1]; JD 0.1 mg·mL−1 in water) was 123 nm. For the same compound, the PDI ([1]; JD 0.25 mg·mL−1 in water) was 0.153, the “Dh (nm)” value ([1]; JD 0.25 mg·mL−1 in water) was 144 nm and the PDI ([1]; JD 0.5 mg·mL−1 in water) was 0.152. For the same compound, the “Dh (nm)” value ([1]; JD 0.5 mg·mL−1 in water) was 162 nm, the PDI ([1]; JD 0.75 mg·mL−1 in water) was 0.236 and the “Dh (nm)” value ([1]; JD 0.75 mg·mL−1 in water) was 224 nm. For the same compound, the PDI ([1]; JD 1.0 mg·mL−1 in water) was 0.233 and the “Dh (nm)” value ([1]; JD 1.0 mg·mL−1 in water) was 266 nm.
With `CCCCCCCCCCCCOc1cc(OCCCCCCCCCCCC)cc(C(=O)OCC(C)(COC(=O)c2cc(OCCCCCCCCCCCC)cc(OCCCCCCCCCCCC)c2)C(=O)OC(COC(=O)c2cc(OCCOCCOCCOC)c(OCCOCCOCCOC)c(OCCOCCOCCOC)c2)COC(=O)c2cc(OCCOCCOCCOC)c(OCCOCCOCCOC)c(OCCOCCOCCOC)c2)c1` [Compound 4, (3,5)-12G2-BMPA-GC-(achiral)-(3,4,5)-3EO-G1] the PDI ([1]; JD 0.025 mg·mL−1 in water) was 0.391, the “Dh (nm)” value ([1]; JD 0.025 mg·mL−1 in water) was 100 nm and the PDI ([1]; JD 0.05 mg·mL−1 in water) was 0.266. The “Dh (nm)” value ([1]; JD 0.05 mg·mL−1 in water) was 102 nm, the PDI ([1]; JD 0.1 mg·mL−1 in water) was 0.136 and the “Dh (nm)” value ([1]; JD 0.1 mg·mL−1 in water) was 119 nm. The PDI ([1]; JD 0.25 mg·mL−1 in water) was 0.180, the “Dh (nm)” value ([1]; JD 0.25 mg·mL−1 in water) was 132 nm and the PDI ([1]; JD 0.5 mg·mL−1 in water) was 0.183. The “Dh (nm)” value ([1]; JD 0.5 mg·mL−1 in water) was 166 nm, the PDI ([1]; JD 0.75 mg·mL−1 in water) was 0.233 and the “Dh (nm)” value ([1]; JD 0.75 mg·mL−1 in water) was 210 nm. The PDI ([1]; JD 1.0 mg·mL−1 in water) was 0.291 and the “Dh (nm)” value ([1]; JD 1.0 mg·mL−1 in water) was 284 nm.
With `CCCCCCCCCCCCOc1cc(CNC(=O)c2cc(OCCOCCOCCOC)c(OCCOCCOCCOC(=O)CCCN(C)C)c(OCCOCCOCCOC)c2)cc(OCCCCCCCCCCCC)c1` [IAJD 2] the “Avg pKa” value [2] was 6.20 and the “pKa 1” value ([2]; titration) was 6.20.
With `CCCCCCCCCCCCOc1cc(CNC(=O)c2cc(OCCOCCOCCOC(=O)CCCN(C)C)c(OCCOCCOCCOC)c(OCCOCCOCCOC(=O)CCCN(C)C)c2)cc(OCCCCCCCCCCCC)c1` [IAJD 4] the “Avg pKa” value [2] was 6.43 and the “pKa 1” value ([2]; titration) was 6.43.
For `CCCCCCCCCCCCOc1cc(CNC(=O)c2cc(OCCOCCOCCOC(=O)CCCN(C)C)c(OCCOCCOCCOCc3ccccc3)c(OCCOCCOCCOC(=O)CCCN(C)C)c2)cc(OCCCCCCCCCCCC)c1` [IAJD 9], the “Avg pKa” value [2] was 6.56, the “pKa 1” value ([2]; titration) was 6.52 and the “pKa 2” value ([2]; titration) was 6.52. The “pKa 3” value ([2]; titration, measurement 3) was 6.64.
With `CCCCCCCCCCCCOc1cc(OCCCCCCCCCCCC)cc(C(=O)OCC(COC(=O)c2cc(OCCCCCCCCCCCC)cc(OCCCCCCCCCCCC)c2)(COC(=O)c2cc(OCCOCCOCCOC)c(OCCOCCOCCOC)c(OCCOCCOCCOC(=O)CCCN(C)C)c2)NC(=O)c2cc(OCCOCCOCCOC)c(OCCOCCOCCOC)c(OCCOCCOCCOC)c2)c1` [IAJD 38] the “Avg pKa” value [2] was 6.38, the “pKa 1” value ([2]; titration) was 6.43 and the “pKa 2” value ([2]; titration) was 6.32.
For `CCCCCCCCCCCCOc1cc(OCCCCCCCCCCCC)cc(C(=O)OCC(COC(=O)c2cc(OCCCCCCCCCCCC)cc(OCCCCCCCCCCCC)c2)(COC(=O)c2cc(OCCOCCOCCOC(=O)CCCN(C)C)c(OCCOCCOCCOC)c(OCCOCCOCCOC(=O)CCCN(C)C)c2)NC(=O)c2cc(OCCOCCOCCOC)c(OCCOCCOCCOC)c(OCCOCCOCCOC)c2)c1` [IAJD 41], the “Avg pKa” value [2] was 6.36, the “pKa 1” value ([2]; titration) was 6.38 and the “pKa 2” value ([2]; titration) was 6.34.
For `CCCCCCCCCCCCOc1cc(OCCCCCCCCCCCC)cc(C(=O)OCC(COC(=O)c2cc(OCCCCCCCCCCCC)cc(OCCCCCCCCCCCC)c2)(COC(=O)c2cc(OCCOCCOCCOC(=O)CCCN(C)C)c(OCCOCCOCCOC(=O)CCCN(C)C)c(OCCOCCOCCOC(=O)CCCN(C)C)c2)NC(=O)c2cc(OCCOCCOCCOC)c(OCCOCCOCCOC)c(OCCOCCOCCOC)c2)c1` [IAJD 42], the “Avg pKa” value [2] was 6.06 and the “pKa 1” value ([2]; titration) was 6.06.
For `CCCCCCCCCCCCOc1cc(COC(=O)CCCN(C)C)cc(OCCCCCCCCCCCC)c1` [IAJD 64, 3,5-Bis(dodecyloxy)benzyl 4-(dimethylamino)butanoate], the pKa ([2]; titration) was 7.06.
Work on `CCCCCCCCCCCCOc1cc(COC(=O)CCCN2CCN(C)CC2)cc(OCCCCCCCCCCCC)c1` [IAJD 66, 3,5-Bis(dodecyloxy)benzyl 4-(4-methylpiperazin-1-yl)butanoate] yielded a pKa ([2]; titration) of 6.37.
For `CCCCCCCCCCCCOc1cc(CNC(=O)CCCN2CCN(C)CC2)cc(OCCCCCCCCCCCC)c1` [IAJD 70, N-(3,5-bis(dodecyloxy)benzyl)-4-(4-methylpiperazin-1-yl)butanamide], the pKa ([2]; titration) was 6.44.
